For one data set, the system named is L929. In words: Cytotoxicity towards normal mouse fibroblast cells L929. The data set is classed as cell-based. Particulars: value without asterisk.
For a further data set, the system named is S1M180 xenograft. In words: In vivo topotecan accumulation in tumor and plasma of S1M180-bearing mice. The note with it: 45 mg/kg Ac15(Az8)2 I.P. one hour prior to 6 mg/kg topotecan I.P.; 5 h post administration. The source says:
(A) S1 xenograft. (B) S1M180 xenograft. There were 3 treatment groups in S1 and S1M180 xenograft model. Treatments were given as indicated by an arrow (↑). % of tumor volume reduction was compared among different treatment groups on days 55 and 71. a, b, and c = mean tumor volume of solvent control, topotecan alone, and combination treatment groups on day 55, respectively. d and e = mean tumor volume of topotecan alone and combination treatment groups on day 71. (C) Tumor weight of S1M180-bearing mice on termination day. (D) % change of tumor volume and tumor doubling time of S1M180 xenograft were determined on days 55 and 71. […] Number of animal death was monitored during the efficacy study. (E) Body weight of S1M180-bearing mice. (F) To measure plasma and intratumor level of topotecan, S1M180-bearing mice were administered with 45 mg/kg (I.P.) of Ac15(Az8)2 one hour prior to 6 mg/kg (I.P.) of topotecan administration. Five hours after topotecan administration, the mice were sacrificed. Plasma and tumor were collected for analyzing topotecan level using UPLC–MS/MS. Student’s unpaired two-tailed t-test was performed between combination group and topotecan alone group or solvent control group as indicated (* p < 0.05, ** p < 0.01, *** p < 0.001).

For another data set, the target named is T1, BCRP (Homo sapiens, UniProt Q9UNQ0, R482G).
T1 construct: endogenous in cells; host or cells: S1M180 (human colon carcinoma, mitoxantrone-selected)
T1 sequence (Q9UNQ0 1-655 R482G): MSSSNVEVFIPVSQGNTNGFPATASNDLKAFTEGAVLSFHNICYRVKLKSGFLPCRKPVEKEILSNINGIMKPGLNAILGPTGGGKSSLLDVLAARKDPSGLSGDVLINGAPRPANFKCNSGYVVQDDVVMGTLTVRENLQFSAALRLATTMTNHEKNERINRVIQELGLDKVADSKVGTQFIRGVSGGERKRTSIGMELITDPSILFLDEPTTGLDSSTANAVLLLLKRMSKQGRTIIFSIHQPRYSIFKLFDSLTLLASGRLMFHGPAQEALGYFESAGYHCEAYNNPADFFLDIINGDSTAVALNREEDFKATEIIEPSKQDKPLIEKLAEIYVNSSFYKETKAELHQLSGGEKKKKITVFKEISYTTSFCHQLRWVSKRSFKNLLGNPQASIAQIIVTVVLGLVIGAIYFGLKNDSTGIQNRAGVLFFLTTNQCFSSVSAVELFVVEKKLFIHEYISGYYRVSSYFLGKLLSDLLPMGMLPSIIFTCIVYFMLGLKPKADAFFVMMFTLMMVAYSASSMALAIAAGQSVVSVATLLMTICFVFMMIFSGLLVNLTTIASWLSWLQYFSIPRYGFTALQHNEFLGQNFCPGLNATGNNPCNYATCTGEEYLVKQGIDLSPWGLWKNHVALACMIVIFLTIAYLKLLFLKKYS
In words: Intracellular Ac15(Az8)2 level in S1 and S1M180 (BCRP substrate test, UPLC-MS/MS). The format is cell-based. The method, then:
Figure 2 Effect of Ac15(Az8)2 on intracellular accumulation of BCRP-substrates in S1 and S1M180 cells. Cells were pre-treated with 0.1% DMSO, 100 nM, or 1000 nM Ac15(Az8)2 and then incubated with BCRP substrates. (A) Topotecan accumulation. (B) DOX accumulation. The intracellular level of drug after treatment was normalized to that of S1 cells after incubating with 0.1% DMSO. Student unpaired two-tailed t-test was conducted as indicated (** p < 0.01, *** p < 0.001). (C) To measure DOX efflux, S1M180 cells were pre-incubated with medium containing 20 μM DOX for 1 h at 37 °C. Cells were then washed and further incubated with or without 1 µM of Ac15(Az8)2. At 0, 5, 10, 30, 60, 120, and 180 min, the cells were harvested to measure the intracellular DOX level. (D) To determine intracellular Ac15(Az8)2 concentration, 1 × 10^7 cells were incubated with 1 µM of Ac15(Az8)2 at 37 °C for 2 h. Cells were then washed with ice-cold PBS. To the cell pellet, acetonitrile was added to lyse the cells, and the supernatant was saved for Ac15(Az8)2 determination using UPLC–MS/MS.
BCRP is an efflux transporter with broad substrate selectivity. In order to study whether Ac15(Az8)2 is itself a substrate of BCRP, its intracellular level was measured after treating the S1 or S1M180 cells for 2 h.

A short description of data set [1]: Pharmacokinetics of topotecan in mice with or without Ac15(Az8)2. The data set is classed as in vivo. The note with it: female, Balb/c, mouse, plasma, ip, topotecan 2 mg/kg I.P.; for AUC(0-inf) / Cmax / half-life: 2 mg/kg; for half-life: read-out: Half-life (E-phase) of topotecan (converted). The method, then:
Ac15(Az8)2 and topotecan in plasma were analyzed by UPLC–MS/MS. UPLC (Acquity Waters) and triple quadrupole mass analyzer (Quattro Ultima) with an electrospray ionization source in the positive mode were used to quantify Ac15(Az8)2 and topotecan. Acquity UPLC BEH C8 and C18 column (1.7 µm 2.1 × 50 mm) from Waters was used to separate Ac15(Az8)2 and topotecan, respectively. Mobile phases used for Ac15(Az8)2 analysis were water and acetonitrile. Ac15(Az8)2 and its internal standard Ac15(Az5)2 (Figure S2) were monitored at m/z 608 → m/z 149 and m/z 594 → […], respectively. Mobile phases used for topotecan analysis were water and methanol. Topotecan and its internal standard tetracycline were monitored at m/z 422 → m/z 377 and m/z 445 → m/z 410, respectively.
Female Balb/c mice at 4–6 weeks were used for the pharmacokinetic studies. Ac15(Az8)2 at 4 mg/mL was prepared in 10% NMP, 10% Cremophor-EL and 80% H2O. Topotecan was dissolved in H2O at 1 mg/mL, and 45 mg/kg Ac15(Az8)2 was administered through intraperitoneal (I.P.) injection. Blood was collected at 10, 30, 60, 70, 90, 120, 180, 240, 300, 480, 720 and 1440 min by cardiac puncture and stored in heparinized tubes for centrifugation at 16,000 g for 5 min. For topotecan pharmacokinetic study, 2 mg/kg topotecan was I.P. administered one hour after 45 mg/kg Ac15(Az8)2 or solvent injection. Blood was collected at 10, 30, 60, 120, 240 and 480 min post-topotecan administration. All animal studies were approved by the Animal Subjects Ethics Sub-committee of the Hong Kong Polytechnic University and performed in accordance with the Cap340 Animal License of the Department of Health in Hong Kong.

A further data set concerns S1 cells. In words: Cytotoxicity of anticancer drugs in parental S1 (0.1% DMSO). The format is cell-based, human.
Setting [2] is: 45 mg/kg Ac15(Az8)2 I.P. one hour prior.

SMILES strings stand for the structures. Read-outs that look alike come from different tables or passages of the source. Some results are limits rather than exact numbers.

Broadly, the IC50 is the concentration at which inhibition is half-maximal. In turn, `COC(=O)c1cccc(COc2c(-c3ccc(OCCOCCn4cc(CN(Cc5ccccc5)Cc5cn(CCOCCOc6ccc(-c7oc8ccccc8c(=O)c7OCc7cccc(C(=O)OC)c7)cc6)nn5)nn4)cc3)oc3ccccc3c2=O)c1` [Ac15(Az8)2] showed a half-maximal inhibitory concentration (IC50) in the data set on L929 of more than 500000 nM. Moreover, the “Effect on plasma level of topotecan” value in the data set on S1M180 xenograft is “did not change significantly”. In addition, the “Intracellular level of Ac15(Az8)2 in S1M180 higher than in S1” value at BCRP (1 µM, 2 h, 37 °C) is “about 20%”. In addition, the “Transport substrate of BCRP” value at BCRP (from intracellular levels in S1 vs S1M180) was “not a transport substrate of BCRP”.

The AUC(0-inf) is total exposure, with the tail of the curve extrapolated. Usually Cmax stands for the highest concentration seen after dosing. The term half-life denotes the time needed for the level to fall by half in the phase considered. Broadly, the Tmax is the time from dosing to the highest level. `CC[C@@]1(O)C(=O)OCc2c1cc1n(c2=O)Cc2cc3c(CN(C)C)c(O)ccc3nc2-1` [topotecan]: in data set [1] (setting [2]), the area under the curve AUC(0-inf) was determined as 8700 ng·h/mL, the peak concentration (Cmax) is 4400 ng/mL, the half-life is 1.6 h and the Tmax stood at 1 h. In addition, in data set [1] (Ac15(Az8)2 0 mg/kg (solvent)), the AUC(0-inf) stood at 4400 ng·h/mL, the peak level (Cmax) was 2900 ng/mL and the half-life was 1.3 h. In the data set with S1 cells (Homo sapiens, S1 + 0.1% DMSO, mean ± S.D., n = 3, read-out: IC50 of topotecan), the IC50 was 446 ± 20 nM. The “RF (Relative Fold), topotecan: resistance of S1M180 compared to parental S1” value in the data set with S1 cells (S1 + 0.1% DMSO vs S1M180 + 0.1% DMSO) is 27.9.
